Laboratory results taken from patent US20200071357A1, “ANTIMICROBIAL PEPTIDES” (UNIVERSITETET I TROMSØ - NORGES ARKTISKE UNIVERSITET, priority 2016, published 2020).
Like-named read-outs stand apart in the source and are kept apart here. Where no end group is shown, it is not given here.

Key:
Type in all cases: cell-based
human red blood cells = assay: Haemolytic assay; details: for Haemolysis (%) 25 μM: peptide 25 μM; for Haemolysis (%) 25 μM / Haemolysis (%) 200 μM: human red blood cells, one hour at 37° C.; for Haemolysis (%) 200 μM: peptide 200 μM
Protocol: Selected synthesised peptide analogues were also screened for haemolytic activity using human red blood cells as described previously (Sperstad, S. V., et al. (2009) Dev. Comp. Immunol. 33, 583-591). The assay was performed on 96-well U-shaped microtiter plates (Nagle Nunc) with 50 μl peptide sample, 40 μl phosphate-buffered saline (PBS) and 10 μl red blood cells. After one hour of incubation at 37° C. in a shaker, the plate was centrifuged at 200 g for 5 min and the supernatants (60 μl) were carefully transferred to a new flat-bottomed polycarbonate microtiter plate (Nagle Nunc) and the release of haemoglobin (absorbance at 550 nm) was measured on a Synergy H1 multimode reader (BioTek, Vt., USA). Cell suspension added 0.05% Triton X-100 (Sigma-Aldrich, Mo., USA) in PBS served as positive (100% haemolysis) control and cell suspension added PBS served as negative (0% haemolysis, blank) control. The percent haemolysis was calculated using the formula [(Asample-Abaseline)/(Atriton-Abaseline)]×100. The cytotoxic peptide melittin (Sigma-Aldrich) was used as a positive control peptide and for comparison. The experiment was performed in triplicates with peptide concentrations ranging from 200 μM to 1.56 μM in two-fold dilutions.

Rhodotorula sp. = details: 24 h
Protocol: (§1) The synthetic peptides were also screened for antifungal activity against Candida albicans (ATCC 10231), Aureobasidium pullulans and Rhodotorula sp. (the last two were obtained from Professor Arne Tronsmo, The Norwegian University of Life Sciences, As, Norway). The antifungal assay was performed as previously described (Sperstad, S. V., et al. (2009) Dev. Comp. Immunol. 33, 583-591). Briefly, fungal spores were dissolved in potato dextrose broth (Difco, Lawrence, Kans., USA) to a concentration of 4×10^5 spores/ml. The spores (50 μl) were inoculated on 96-well Nunclon™ microtiter plates containing the synthetic peptides (50 μl) dissolved in MQ-H2O. […] The negative (growth) control consisted of medium and fungal solution. The peptides were tested for activity in concentrations ranging from 100 to 0.1 μM in two-fold serial dilutions. All tests were performed in triplicates.

Aureobasidium pullulans = details: 24 h
Protocol: as §1

[1] = tested on: Candida albicans (ATCC 10231); details: ATCC 10231, 24 h
Protocol: as §1

[2] = tested on: Staphylococcus aureus (Sa, ATCC 9144)
Protocol: (§2) The peptides were screened for antibacterial activity against two strains of Gram-positive and two strains of Gram-negative bacteria; Corynebacterium glutamicum (Cg, ATCC 13032), Staphylococcus aureus (Sa, ATCC 9144), Pseudomonas aeruginosa (Pa, ATCC 27853) and Escherichia coli (Ec, ATCC 25922).
(§3) Cultures stored at −80° C. in glycerol were transferred to Müller-Hinton plates (MH, Difco, Lawrence, Kans., USA) and incubated for 24 h at 35° C. A few colonies of each bacterial strain were transferred to 5 ml liquid MH medium and left shaking at room temperature overnight at 600 rpm. Cultures of actively growing bacteria (20 μl) were inoculated in 5 ml MH medium and left shaking for 2 h at room temperature. The antibacterial assays were performed as previously described by Sperstad, S. V., et al. ((2009) Mol. Immunol. 46, 2604-2612) with the following exception: bacterial cultures were diluted with medium to 2.5-3×10^4 bacteria/ml concentrations. An aliquot of 50 μl (1250-1500 bacterial cells) was added to each well in 96-well Nunclon™ microtiter plates (Nagle Nunc Int., Denmark) preloaded with peptide solution (50 μl).
(§4) The microtiter plates were incubated for 24 h at 35° C. with optical density recorded every hour using an Envision 2103 multilabel reader, controlled by a Wallac Envision manager (PerkinElmer, Conn., USA). Minimum inhibitory concentration (MIC) was defined as a sample showing complete inhibition (as measured by optical density at 595 nm) compared to the negative (growth) controls, consisting of bacteria and water. Oxytetracycline (20 μM) served as a positive (inhibition) control.
(§5) The synthetic peptides were tested for antibacterial activity in concentrations ranging from 200 to 0.1 μM in two-fold dilutions. All tests were performed in triplicates.

[3] = tested on: Escherichia coli (Ec, ATCC 25922)
Protocol: as §2, §3, §4, §5

[4] = tested on: Corynebacterium glutamicum (Cg, ATCC 13032)
Protocol: as §2, §3, §4, §5

[5] = tested on: Pseudomonas aeruginosa (Pa, ATCC 27853)
Protocol: as §2, §3, §4, §5

[6] = tested on: A. pullulans, Rhodotorula sp. and C. albicans
Protocol: as §1

Row | Substance | Haemolysis (%) 25 μM (human red blood cells) [%] | Haemolysis (%) 200 μM (human red blood cells) [%] | MIC (μM) Rhodotorula sp. (Rhodotorula sp.) [µM] | MIC (μM) A. pullulans (Aureobasidium pullulans) [µM] | MIC (μM) C. albicans [1] [µM] | MIC (μM) Sa ([2]; ATCC 9144, 24 h) [µM] | MIC (μM) Ec ([3]; ATCC 25922, 24 h) [µM] | MIC (μM) Cg ([4]; ATCC 13032, 24 h) [µM] | MIC (μM) Pa ([5]; ATCC 27853, 24 h) [µM] | haemolytic activity (human red blood cells; at concentrations closer to the MIC-values) | Haemolysis (%) 200 μM (human red blood cells; listed as lead peptide) [%] | antifungal MICs (range over the three fungi) [6] [µM] | MIC (μM) Sa ([2]; ATCC 9144) [µM] | MIC (μM) Ec ([3]; ATCC 25922) [µM] | MIC (μM) Cg ([4]; ATCC 13032) [µM] | MIC (μM) Pa ([5]; ATCC 27853) [µM] | Haemolysis (%) 200 μM (human red blood cells; listed as full HC) [%]
1 | GWWRATVAKVRK-NH2 [Peptide R5A, GWWRATVAKVRK-NH2] | 0.0 | 0.0 | 12.5 | 25 | 25 | 100 | 6.3 | 0.8 | 25 | – | – | – | – | – | – | – | –
2 | GWWRRTAAKVRK-NH2 [Peptide V7A, GWWRRTAAKVRK-NH2] | 0.0 | 0.0 | 12.5 | 25 | 25 | 100 | 12.5 | 1.6 | 12.5 | – | – | – | – | – | – | – | –
3 | GWWRRTVAKARK-NH2 [Peptide V10A, GWWRRTVAKARK-NH2] | 0.0 | 1.0 | 12.5 | 50 | 25 | 100 | 12.5 | 1.6 | 6.3 | – | – | – | – | – | – | – | –
4 | GWWRRTVAKVAK-NH2 [Peptide R11A, GWWRRTVAKVAK-NH2] | 0.0 | 0.0 | 12.5 | 50 | 25 | 100 | 12.5 | 1.6 | 12.5 | – | – | – | – | – | – | – | –
5 | GWWRRTVAKVRK-NH2 [HC(1-12)A8K12, GWWRRTVAKVRK-NH2] | 2.4 | 25.1 | – | – | – | 25 | 6.3 | – | 3.1 | negligible | 25 | 1.6 to 6.3 | 6.3 | 6.3 | 0.4 | 6.3 | –
6 | GWWRRTVDKVRNAGRK [HC(1-16), GWWRRTVDKVRNAGRK] | 0.0 | 0.0 | 25 | 50 | 100 | 200 | 6.3 | 0.8 | 12.5 | – | – | – | – | – | – | – | –
7 | GWWRRTVDKVRNAGRKVAGFASKACGALGH [HC, reference compound] | 13.5 | 74.6 | 12.5 | 12.5 | 100 | 3.1 | 0.8 | 0.4 | 1.6 | – | – | – | – | – | – | – | 75
